Assay [1] deals with T1, RNA-binding protein pos-1 (Caenorhabditis elegans, UniProt G5EF15).
T1 sequence (G5EF15 whole entry): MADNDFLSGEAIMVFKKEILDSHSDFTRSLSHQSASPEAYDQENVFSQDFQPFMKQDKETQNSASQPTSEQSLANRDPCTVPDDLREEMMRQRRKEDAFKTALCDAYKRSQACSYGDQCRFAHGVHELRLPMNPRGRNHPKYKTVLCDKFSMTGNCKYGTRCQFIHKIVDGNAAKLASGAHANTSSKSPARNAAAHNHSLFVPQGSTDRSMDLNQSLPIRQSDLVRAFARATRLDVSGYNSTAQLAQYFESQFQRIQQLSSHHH
Nature of the assay: disruptors of C. elegans POS-1 RNA interaction – biochemical, fluorescence polarization, dose response (AID 1964). (In general: In fluorescence polarisation assays a small probe gives low polarisation when free and higher when bound to something large.)

Assay [2] has as its system Streptococcus sp. 'group A'. The assay is described as follows: Streptococcus pyogenes SK(-)GAS viability under kanamycin – luminescence, BacTiterGlo, confirmation, counter-screen for streptokinase expression inhibitor project, dose response (AID 1900). In kind it is functional, organism-based. (Counterscreens check selectivity or assay interference.)
In assay [3] the target is T2, Zinc finger protein mex-5 (Caenorhabditis elegans, UniProt Q9XUB2).
T2 sequence (Q9XUB2 whole entry): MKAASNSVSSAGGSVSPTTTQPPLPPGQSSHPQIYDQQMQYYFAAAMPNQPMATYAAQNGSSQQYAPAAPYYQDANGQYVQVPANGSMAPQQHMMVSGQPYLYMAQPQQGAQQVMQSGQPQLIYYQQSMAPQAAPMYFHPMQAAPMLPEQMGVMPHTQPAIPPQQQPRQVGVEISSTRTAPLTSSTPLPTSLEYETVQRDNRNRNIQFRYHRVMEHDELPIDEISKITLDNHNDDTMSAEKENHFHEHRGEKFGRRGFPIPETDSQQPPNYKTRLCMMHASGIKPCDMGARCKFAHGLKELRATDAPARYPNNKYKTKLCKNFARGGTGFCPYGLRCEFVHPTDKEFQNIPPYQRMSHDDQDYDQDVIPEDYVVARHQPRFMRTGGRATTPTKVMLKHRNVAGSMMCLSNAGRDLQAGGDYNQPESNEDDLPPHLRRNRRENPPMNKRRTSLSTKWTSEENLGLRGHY
The assay is described as follows: potency of MEX-5 RNA-binding blockers – biochemical, C. elegans, fluorescence polarization, dose response (AID 1960).

The next assay addresses T3, Streptokinase A (Streptococcus pyogenes serotype M1, UniProt P10520).
T3 sequence (P10520 whole entry): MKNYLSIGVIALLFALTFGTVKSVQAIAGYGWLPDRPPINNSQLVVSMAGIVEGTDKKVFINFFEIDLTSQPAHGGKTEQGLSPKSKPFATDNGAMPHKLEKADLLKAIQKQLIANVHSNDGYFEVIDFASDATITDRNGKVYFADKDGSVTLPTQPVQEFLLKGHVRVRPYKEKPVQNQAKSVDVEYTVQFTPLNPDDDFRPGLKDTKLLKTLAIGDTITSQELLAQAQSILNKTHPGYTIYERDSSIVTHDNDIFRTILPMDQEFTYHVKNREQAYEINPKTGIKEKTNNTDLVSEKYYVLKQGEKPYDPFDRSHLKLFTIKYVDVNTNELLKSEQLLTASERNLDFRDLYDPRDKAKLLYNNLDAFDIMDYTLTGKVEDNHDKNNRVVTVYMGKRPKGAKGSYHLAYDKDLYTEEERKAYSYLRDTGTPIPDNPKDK
Nature of the assay: viability-normalized secreted streptokinase activity reduction – plasminogen activation absorbance, OD405, dose response (AID 1914).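 Further: secreted streptokinase activity via plasminogen activation per viability signal from cell pellet.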 The class given is functional, Streptococcus pyogenes M1 GAS.

The subject of a further assay is Streptococcus. The assay is described as follows: GAS UMAA2166 growth inhibition – luminescence, BacTiterGlo, counter-screen for streptokinase expression inhibitor project, dose response (AID 1915).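 Further: potency for reduction of bacterial viability or growth.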 The class given is functional, organism-based.
For assay [4], the target named is Neurotensin receptor type 1 (Homo sapiens, UniProt P30989). In kind it is functional.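 Further: Image-based confirmatory dose-response assay measuring agonist activity at NTR1; NTR1-expressing U2OS osteosarcoma cells imaged for beta-arrestin GFP spot formation; agonist potency where compounds increase beta-arrestin recruitment.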
Chain of Neurotensin receptor type 1 (P30989 whole entry): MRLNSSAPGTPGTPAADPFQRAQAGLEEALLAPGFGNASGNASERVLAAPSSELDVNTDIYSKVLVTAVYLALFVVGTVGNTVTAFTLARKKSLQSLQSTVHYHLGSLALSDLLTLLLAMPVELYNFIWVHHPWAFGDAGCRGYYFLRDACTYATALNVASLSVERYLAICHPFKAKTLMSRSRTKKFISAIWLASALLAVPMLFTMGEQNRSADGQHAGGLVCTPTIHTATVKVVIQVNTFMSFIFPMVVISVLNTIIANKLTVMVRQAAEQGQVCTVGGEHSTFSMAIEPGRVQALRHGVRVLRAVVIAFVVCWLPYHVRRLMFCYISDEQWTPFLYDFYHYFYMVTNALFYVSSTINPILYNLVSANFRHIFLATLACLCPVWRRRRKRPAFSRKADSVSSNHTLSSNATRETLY
The nature of assay [5]: Counterscreen for IDE inhibitors: Luminescence-based cell-based high throughput dose response assay to identify compounds that are cytotoxic to HEK cells. [Related pubchem assays: 434962 (Primary screen (IDE inhibitors in singlicate)), 449730 (Counterscreen (Cytotoxicity in triplicate)), 435028 (Confirmation (IDE inhibitors in triplicate)) …. The note with it: HEK293. The class given is functional.

Another assay has as its target T4, Insulin-degrading enzyme (Homo sapiens, UniProt P14735).
T4 sequence (P14735 whole entry): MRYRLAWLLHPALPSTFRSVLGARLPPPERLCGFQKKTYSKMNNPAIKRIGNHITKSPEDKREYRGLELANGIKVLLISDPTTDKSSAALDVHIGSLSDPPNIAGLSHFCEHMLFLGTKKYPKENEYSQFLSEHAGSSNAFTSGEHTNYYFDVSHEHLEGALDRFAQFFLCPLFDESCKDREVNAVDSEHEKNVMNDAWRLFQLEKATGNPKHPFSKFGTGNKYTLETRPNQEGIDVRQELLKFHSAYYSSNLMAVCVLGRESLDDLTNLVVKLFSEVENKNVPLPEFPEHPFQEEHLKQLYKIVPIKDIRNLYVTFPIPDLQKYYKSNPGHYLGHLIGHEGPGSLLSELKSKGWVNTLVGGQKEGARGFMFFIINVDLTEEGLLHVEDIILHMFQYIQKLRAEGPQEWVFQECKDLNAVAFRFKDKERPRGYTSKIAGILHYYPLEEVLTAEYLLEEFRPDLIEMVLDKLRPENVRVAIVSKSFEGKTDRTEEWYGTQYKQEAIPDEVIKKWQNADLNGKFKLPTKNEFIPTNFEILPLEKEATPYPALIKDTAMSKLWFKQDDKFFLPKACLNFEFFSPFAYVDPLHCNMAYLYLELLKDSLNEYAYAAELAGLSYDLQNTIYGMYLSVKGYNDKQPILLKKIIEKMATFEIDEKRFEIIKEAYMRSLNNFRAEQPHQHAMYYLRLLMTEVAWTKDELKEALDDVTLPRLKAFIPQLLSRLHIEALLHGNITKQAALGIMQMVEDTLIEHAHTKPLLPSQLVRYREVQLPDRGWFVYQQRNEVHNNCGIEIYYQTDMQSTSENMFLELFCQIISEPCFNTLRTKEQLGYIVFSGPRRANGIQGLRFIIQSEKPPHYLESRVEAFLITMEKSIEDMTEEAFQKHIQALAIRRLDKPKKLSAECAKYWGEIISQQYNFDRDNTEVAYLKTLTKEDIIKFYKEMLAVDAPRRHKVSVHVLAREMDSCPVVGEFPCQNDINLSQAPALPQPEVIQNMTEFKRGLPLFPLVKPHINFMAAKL
The assay is described as follows: Dose Response: Fluorescence polarization-based cell-based high throughput dose response assay for inhibitors of insulin-degrading enzyme (IDE). [Related pubchem assays: 434962 (Primary screen (IDE inhibitors in singlicate)), 449730 (Counterscreen (Cytotoxicity in triplicate)), 435028 (Confirmation (IDE inhibitors in triplicate)), 434984 (Summary …. In kind it is functional.

A short description of assay [6]: HEK-293T cell viability reduction – luminescence, B-cell screen hits, cytotoxicity control for BCR NF-kB inhibitor project, dose response (AID 489021).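 Further: HEK-293T cells carrying an NF-kB luciferase reporter; cells exposed to compound for about 14 hours before viability readout.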 The class given is functional, cell-based.
In another assay the target is T5, Aminopeptidase N (Plasmodium falciparum FcB1/Columbia, UniProt O96935).
T5 sequence (O96935 whole entry): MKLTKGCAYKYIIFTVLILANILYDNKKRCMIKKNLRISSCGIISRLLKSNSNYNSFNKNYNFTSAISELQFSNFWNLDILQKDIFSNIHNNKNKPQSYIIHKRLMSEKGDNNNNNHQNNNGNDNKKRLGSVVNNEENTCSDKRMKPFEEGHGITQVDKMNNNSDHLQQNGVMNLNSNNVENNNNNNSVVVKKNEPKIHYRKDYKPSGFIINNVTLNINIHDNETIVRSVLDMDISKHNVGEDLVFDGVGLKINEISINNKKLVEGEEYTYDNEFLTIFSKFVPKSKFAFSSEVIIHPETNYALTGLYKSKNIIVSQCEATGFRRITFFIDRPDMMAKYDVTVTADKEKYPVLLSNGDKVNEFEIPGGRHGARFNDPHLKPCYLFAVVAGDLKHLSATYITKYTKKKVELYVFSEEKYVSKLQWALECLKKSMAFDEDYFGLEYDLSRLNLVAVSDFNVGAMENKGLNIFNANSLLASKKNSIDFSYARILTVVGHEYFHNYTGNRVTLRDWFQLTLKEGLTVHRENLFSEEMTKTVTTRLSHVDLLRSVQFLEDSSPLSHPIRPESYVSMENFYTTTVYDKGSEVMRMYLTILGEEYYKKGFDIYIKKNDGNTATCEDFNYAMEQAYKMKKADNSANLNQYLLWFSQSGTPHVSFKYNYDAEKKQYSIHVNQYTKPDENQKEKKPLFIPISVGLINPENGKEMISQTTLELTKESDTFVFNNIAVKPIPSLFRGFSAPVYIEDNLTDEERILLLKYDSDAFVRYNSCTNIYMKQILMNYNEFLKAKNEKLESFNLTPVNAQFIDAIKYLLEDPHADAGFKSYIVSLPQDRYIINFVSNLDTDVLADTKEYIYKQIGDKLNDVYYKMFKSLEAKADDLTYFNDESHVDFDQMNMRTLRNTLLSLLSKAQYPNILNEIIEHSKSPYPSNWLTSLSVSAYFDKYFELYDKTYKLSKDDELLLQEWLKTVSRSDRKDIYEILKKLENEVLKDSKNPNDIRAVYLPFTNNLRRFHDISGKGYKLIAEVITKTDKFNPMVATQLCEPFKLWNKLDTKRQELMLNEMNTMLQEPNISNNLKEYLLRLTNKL
The assay is described as follows: malaria alanyl aminopeptidase activity blockers – biochemical, fluorogenic H-Leu-NHMec substrate, 1536-well (AID 1445). Set-up: species or system Plasmodium falciparum 3D7, 3D7.

The target in assay [7] is E3 ubiquitin-protein ligase XIAP (Homo sapiens, UniProt P98170). Nature of the assay: Counter Screen using XIAP-Bir3 for Chemical Antagonists of Bir1/2 domains of IAP-family anti-apoptotic proteins. [Related pubchem assays (depositor defined):AID1018, AID1449, AID1514, AID1638, AID1749, AID1750, AID488957, AID488963].
Chain of E3 ubiquitin-protein ligase XIAP (P98170 whole entry): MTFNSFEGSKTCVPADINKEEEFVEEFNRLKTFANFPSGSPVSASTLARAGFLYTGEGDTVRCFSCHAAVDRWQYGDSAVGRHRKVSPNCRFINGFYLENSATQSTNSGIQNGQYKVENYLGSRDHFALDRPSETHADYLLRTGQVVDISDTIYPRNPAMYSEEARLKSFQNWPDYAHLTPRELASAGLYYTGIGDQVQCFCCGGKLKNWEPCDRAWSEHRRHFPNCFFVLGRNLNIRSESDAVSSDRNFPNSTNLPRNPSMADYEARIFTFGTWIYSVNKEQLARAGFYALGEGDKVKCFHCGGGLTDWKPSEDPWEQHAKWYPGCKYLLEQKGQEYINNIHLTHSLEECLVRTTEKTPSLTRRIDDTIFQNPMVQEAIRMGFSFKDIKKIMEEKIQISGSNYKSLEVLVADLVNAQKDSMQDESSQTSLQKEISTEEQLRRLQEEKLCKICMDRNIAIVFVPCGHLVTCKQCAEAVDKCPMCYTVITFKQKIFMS
The target of assay [8] is Photoreceptor-specific nuclear receptor (Homo sapiens, UniProt Q9Y5X4). In kind it is functional.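 Further: potency for compounds that break the NR2E3 corepressor complex and count as activators.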
Chain of Photoreceptor-specific nuclear receptor (Q9Y5X4 whole entry): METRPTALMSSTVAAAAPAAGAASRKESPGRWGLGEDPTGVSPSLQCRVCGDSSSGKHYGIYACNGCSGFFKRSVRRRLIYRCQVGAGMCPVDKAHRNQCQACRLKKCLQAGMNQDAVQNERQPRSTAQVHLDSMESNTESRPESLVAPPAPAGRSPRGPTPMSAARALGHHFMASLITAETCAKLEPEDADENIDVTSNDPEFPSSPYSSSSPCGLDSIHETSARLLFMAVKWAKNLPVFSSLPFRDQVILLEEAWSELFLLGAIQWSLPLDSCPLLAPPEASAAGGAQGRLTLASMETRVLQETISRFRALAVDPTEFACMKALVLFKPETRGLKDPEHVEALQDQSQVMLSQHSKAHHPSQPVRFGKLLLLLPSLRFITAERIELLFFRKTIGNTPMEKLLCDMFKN
Assay [9] concerns the target Peroxisome proliferator-activated receptor gamma/Nuclear receptor corepressor 2 (Homo sapiens, UniProt P37231+Q9Y618). In kind it is functional.
A further assay has as its target T6, Coagulation factor XII (Homo sapiens, UniProt P00748).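 Further: activated factor XIIa alpha cleaving a fluorogenic AMC peptide substrate; inhibitor potency from loss of enzyme activity.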
T6 sequence (P00748 whole entry): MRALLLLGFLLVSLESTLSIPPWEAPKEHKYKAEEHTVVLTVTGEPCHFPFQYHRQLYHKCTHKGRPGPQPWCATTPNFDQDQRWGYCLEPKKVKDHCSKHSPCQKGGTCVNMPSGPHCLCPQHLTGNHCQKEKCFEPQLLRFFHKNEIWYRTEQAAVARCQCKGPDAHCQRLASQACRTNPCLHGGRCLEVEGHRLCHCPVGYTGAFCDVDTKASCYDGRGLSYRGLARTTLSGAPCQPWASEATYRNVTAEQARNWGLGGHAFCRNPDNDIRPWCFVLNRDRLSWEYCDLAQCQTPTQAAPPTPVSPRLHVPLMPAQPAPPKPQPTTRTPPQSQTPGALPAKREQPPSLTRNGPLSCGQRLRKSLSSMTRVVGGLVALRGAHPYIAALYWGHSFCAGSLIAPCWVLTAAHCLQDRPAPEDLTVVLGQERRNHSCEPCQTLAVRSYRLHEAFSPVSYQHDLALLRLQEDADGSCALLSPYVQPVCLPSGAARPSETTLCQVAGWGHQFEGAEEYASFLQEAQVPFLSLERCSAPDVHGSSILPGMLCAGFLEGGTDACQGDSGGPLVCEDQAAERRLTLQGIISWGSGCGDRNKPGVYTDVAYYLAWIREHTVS
In kind it is functional.

Assay [10] addresses DNA dC->dU-editing enzyme APOBEC-3A (Homo sapiens, UniProt P31941). The assay is described as follows: Dose Response confirmation of small molecule APOBEC3A DNA Deaminase Inhibitors via a fluorescence-based single-stranded DNA deaminase assay. [Related pubchem assays (depositor defined):AID493011, AID493024]. In kind it is functional.
Assay [11] has as its target T7, Carboxy-terminal domain RNA polymerase II polypeptide A small phosphatase 1 (Homo sapiens, UniProt Q9GZU7).
T7 sequence (Q9GZU7 whole entry): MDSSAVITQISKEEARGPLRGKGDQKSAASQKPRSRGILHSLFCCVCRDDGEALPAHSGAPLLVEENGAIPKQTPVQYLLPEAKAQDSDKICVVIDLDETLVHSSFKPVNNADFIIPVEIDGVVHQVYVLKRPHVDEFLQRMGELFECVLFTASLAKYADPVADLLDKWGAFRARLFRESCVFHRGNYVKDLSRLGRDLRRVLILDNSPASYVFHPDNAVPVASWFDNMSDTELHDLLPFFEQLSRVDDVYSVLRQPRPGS
The assay is described as follows: CTDSP1 inhibitors, concentration-response, biochemical, absorbance readout, ultra-high-throughput screen actives (AID 540297). The class given is functional.

This note sets out measurements from ChEMBL document CHEMBL1201862, “PubChem BioAssay data set” (2004).

Activity calls are given as the source filed them.

Chain of Peroxisome proliferator-activated receptor gamma/Nuclear receptor corepressor 2 (P37231 whole entry): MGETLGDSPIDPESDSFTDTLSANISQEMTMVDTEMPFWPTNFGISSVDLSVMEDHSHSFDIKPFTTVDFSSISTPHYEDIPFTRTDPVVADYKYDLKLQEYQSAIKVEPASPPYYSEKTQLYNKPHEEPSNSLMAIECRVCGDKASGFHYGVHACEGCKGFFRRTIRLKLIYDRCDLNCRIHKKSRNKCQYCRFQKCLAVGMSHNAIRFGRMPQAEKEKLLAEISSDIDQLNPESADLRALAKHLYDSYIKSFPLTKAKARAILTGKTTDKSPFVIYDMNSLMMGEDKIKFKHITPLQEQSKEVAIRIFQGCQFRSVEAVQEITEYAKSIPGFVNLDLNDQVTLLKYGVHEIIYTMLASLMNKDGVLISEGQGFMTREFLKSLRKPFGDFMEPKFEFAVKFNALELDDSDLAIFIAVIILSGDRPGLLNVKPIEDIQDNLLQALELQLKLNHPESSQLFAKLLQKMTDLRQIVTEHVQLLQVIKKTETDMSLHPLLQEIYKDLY
Chain of Peroxisome proliferator-activated receptor gamma/Nuclear receptor corepressor 2 (Q9Y618 whole entry): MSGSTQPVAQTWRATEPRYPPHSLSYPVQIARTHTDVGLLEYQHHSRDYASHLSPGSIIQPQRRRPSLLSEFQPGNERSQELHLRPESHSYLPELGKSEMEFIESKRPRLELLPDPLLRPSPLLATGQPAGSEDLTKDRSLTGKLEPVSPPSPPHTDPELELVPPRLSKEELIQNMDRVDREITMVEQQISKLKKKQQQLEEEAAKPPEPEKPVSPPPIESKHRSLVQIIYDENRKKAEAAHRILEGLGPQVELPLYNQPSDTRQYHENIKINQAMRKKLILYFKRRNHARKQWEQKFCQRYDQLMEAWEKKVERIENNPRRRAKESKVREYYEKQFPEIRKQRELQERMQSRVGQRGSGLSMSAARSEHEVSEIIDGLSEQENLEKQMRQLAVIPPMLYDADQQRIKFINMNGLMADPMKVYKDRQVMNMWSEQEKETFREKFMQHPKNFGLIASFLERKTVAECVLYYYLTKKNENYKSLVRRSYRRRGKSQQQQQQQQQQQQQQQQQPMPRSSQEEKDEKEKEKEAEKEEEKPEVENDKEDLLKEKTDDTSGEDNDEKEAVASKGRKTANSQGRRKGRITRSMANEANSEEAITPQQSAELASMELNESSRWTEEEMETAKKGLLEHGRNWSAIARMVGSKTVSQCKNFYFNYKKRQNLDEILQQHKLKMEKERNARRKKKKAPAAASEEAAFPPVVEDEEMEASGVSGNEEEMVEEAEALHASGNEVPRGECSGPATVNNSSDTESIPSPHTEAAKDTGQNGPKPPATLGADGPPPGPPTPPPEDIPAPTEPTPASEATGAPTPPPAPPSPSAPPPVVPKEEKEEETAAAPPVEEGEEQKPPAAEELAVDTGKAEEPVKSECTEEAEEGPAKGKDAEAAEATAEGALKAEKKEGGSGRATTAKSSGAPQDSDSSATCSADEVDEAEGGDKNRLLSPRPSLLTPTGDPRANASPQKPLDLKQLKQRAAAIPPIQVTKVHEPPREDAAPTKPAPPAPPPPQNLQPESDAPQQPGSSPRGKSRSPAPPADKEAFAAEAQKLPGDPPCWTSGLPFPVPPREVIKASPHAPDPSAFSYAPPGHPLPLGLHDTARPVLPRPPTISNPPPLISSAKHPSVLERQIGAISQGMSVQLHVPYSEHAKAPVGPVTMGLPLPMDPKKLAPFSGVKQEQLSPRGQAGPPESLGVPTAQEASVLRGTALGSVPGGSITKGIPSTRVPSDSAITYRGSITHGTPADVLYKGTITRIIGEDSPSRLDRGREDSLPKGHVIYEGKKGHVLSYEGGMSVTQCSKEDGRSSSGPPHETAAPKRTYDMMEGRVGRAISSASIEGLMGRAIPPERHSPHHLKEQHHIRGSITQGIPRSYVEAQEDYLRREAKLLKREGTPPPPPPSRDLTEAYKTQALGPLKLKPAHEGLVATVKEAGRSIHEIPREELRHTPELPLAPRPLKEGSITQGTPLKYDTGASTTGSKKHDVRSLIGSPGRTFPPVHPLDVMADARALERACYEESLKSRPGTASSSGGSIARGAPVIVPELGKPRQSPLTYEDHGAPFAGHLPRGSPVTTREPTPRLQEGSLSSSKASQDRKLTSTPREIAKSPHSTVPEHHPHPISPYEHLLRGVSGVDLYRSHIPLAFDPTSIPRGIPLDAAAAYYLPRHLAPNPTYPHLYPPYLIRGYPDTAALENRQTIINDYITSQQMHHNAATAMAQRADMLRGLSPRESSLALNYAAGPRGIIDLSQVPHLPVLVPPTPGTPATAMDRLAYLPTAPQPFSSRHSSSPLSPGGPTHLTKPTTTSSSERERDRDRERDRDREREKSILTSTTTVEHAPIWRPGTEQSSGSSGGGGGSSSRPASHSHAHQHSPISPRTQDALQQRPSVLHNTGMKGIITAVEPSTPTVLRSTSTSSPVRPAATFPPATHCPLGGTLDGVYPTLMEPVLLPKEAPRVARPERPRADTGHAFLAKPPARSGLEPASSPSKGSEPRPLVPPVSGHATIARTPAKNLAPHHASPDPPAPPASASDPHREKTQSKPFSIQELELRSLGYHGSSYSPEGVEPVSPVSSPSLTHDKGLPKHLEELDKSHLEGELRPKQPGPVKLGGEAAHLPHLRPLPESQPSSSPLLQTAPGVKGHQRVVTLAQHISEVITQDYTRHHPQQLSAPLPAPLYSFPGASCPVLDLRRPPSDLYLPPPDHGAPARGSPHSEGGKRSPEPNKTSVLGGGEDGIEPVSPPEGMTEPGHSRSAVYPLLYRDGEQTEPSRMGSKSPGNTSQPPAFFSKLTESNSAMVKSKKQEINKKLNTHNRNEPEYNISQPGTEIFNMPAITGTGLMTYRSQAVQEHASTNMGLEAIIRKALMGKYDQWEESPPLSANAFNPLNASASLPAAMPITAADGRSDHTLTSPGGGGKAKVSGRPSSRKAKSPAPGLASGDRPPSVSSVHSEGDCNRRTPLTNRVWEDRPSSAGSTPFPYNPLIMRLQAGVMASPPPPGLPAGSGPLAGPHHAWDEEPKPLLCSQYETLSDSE
Chain of DNA dC->dU-editing enzyme APOBEC-3A (P31941 whole entry, the tested form may be a part): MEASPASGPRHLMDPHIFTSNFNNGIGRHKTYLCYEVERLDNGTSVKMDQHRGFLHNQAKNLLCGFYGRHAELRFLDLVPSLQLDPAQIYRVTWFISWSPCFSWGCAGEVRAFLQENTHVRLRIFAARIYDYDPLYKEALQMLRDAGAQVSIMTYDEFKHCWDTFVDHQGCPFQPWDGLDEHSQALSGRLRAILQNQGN

With `COc1ccc(OC)c(N/C=C2/C(=O)NC(=S)N(Cc3ccccc3)C2=O)c1`, the EC50 (as a rule, the concentration needed to bring the measured effect to its halfway point) in assay [1] was > 300 µM (not active); in assay [2], > 150 µM (not active); in assay [3], > 300 µM (inconclusive); at Streptokinase A it was > 150 µM (not active); with Streptococcus, > 150 µM (not active); in [4], 38.3 µM (inactive).

Turning to `CCOC(=O)N1CCN(c2[nH]cnc3c4cc(OC)ccc4nc2-3)CC1`, the IC50 – broadly, the point on the concentration scale where inhibition reaches its midpoint – was 18.4 µM (not active) in [5], 9.15 µM (active) at Insulin-degrading enzyme and 56.9 µM (inactive) in assay [6].

As for `Cc1cccc(N2C(=O)/C(=C/Nc3ccccc3-c3nnc(S)nc3O)c3ccccc3C2=O)n1`, the values for the IC50 (at Aminopeptidase N; in assay [5]; against Insulin-degrading enzyme) were 60.4 µM (active), > 55.7 µM (not active) and 12.2 µM (not active), respectively.

In the case of `C=CCc1cccc2cc(C(=O)Nc3ccc(CC(=O)O)cc3)c(=O)oc12`, in assay [7], the IC50 was > 20 µM (inactive).

As for `Cc1nn(CCc2nnn[nH]2)c2nc(-c3ccc(Br)cc3)cc(C(F)(F)F)c12`, the IC50 was > 39.8 µM (not active) in assay [8], 4.7 µM (active) in assay [9] and > 50 µM (inactive) at Coagulation factor XII.

Turning to `CCOc1ccc(C(=O)Nc2nnc(NC(=S)Nc3ccccc3)s2)cc1`, the EC50 in assay [4] was 9.68 µM (active).

For `CC(C)[N+]12CCC(CC1)C(C(O)(c1ccccc1)c1ccccc1)C2` (centres undefined), the IC50 in assay [10] was 2.71 µM (active); in [11] it was 8.96 µM (active).
